Measured values as given in patent US20060073995A1, “Animal shampoo” (priority 2004, published 2006).

Assay: Stability study of the shampoo solution at room temperature (active ingredient remaining)
Assay type: physicochemical
Protocol: Solution was stirred and stability studies were performed at room temperature

N-chloro-4-carboxybenzenesulfonamide disodium salt active ingredient remained (in Example 1 shampoo (1% active, pH just below 9), after 49 days): 84.8%
N-chloro-4-carboxybenzenesulfonamide disodium salt active ingredient remained (in Example 2 shampoo (1% active, pH 9), after 62 days): 100%
N-chloro-4-carboxybenzenesulfonamide disodium salt active ingredient remained (in Example 3 shampoo (1% active, pH 9), after 62 days): 88.1%
Substance: N-chloro-4-carboxybenzenesulfonamide disodium salt
